Values quoted from earlier work in PMC9318694 (Molecules, 2022).
Like-named read-outs stand apart in the source and are kept apart here.

Target: D2R (Homo sapiens, UniProt P14416)
Details: read-out: KI, cited from earlier work
[1] = Table S1, data set of actives, radio-ligand binding assays, ref ChEMBL, [50]-[70]

Chain of D2R (P14416 whole entry): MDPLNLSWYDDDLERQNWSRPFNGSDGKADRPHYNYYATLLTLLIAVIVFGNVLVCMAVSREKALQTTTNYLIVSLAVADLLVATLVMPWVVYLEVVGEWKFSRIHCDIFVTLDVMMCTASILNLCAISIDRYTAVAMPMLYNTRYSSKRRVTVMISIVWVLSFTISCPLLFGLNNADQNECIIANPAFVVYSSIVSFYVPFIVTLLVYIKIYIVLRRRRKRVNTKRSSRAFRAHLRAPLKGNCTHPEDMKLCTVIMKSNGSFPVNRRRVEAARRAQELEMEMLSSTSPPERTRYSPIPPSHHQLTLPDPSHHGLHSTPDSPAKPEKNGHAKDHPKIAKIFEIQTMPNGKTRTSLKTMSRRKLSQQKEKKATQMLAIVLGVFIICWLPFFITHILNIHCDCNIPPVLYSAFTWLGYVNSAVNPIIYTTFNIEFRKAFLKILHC

Row | SMILES | Ki [1] [nM] | further results
1 | C=CCN1C[C@H](C(=O)N(CCCN(C)C)C(=O)NCC)C[C@@H]2c3cccc4[nH]cc(c34)C[C@H]21 [Compound 3, Cabergoline] | 0.7 | 
2 | OC1CCc2ccc(N=CN3CCc4ccccc4C3)cc21 (stereo not drawn) [Compound S68, 6-(3,4-dihydro-1H-isoquinolin-2-ylmethylideneamino)-2,3-dihydro-1H-inden-1-ol] |  | Ki (Table S2, data set of inactives, radio-ligand binding (RLB) assays, ref ChEMBL, [71]-[92]): > 300000 nM
3 | CCCN(CCCCNC(=O)c1ccc(OCCCc2cn(CCCCCCCCn3cc(CCCOc4ccc(C(=O)NCCCCN(CCC)C5Cc6ccccc6C5)cc4OC)nn3)nn2)c(OC)c1)C1Cc2ccccc2C1 [SC2, 4,4'-(((octane-1,8-diylbis(1H-1,2,3-triazole-1,4-diyl))bis(propane-3,1-diyl))bis(oxy))bis(N-(4-((2,3-dihydro-1H-inden-2-yl)(propyl)amino)butyl)-3-methoxybenzamide)] | 16 | 
4 | CCCCn1cc(CCCOc2ccc(C(=O)NCCCCN(CCC)C3Cc4ccccc4C3)cc2OC)nn1 [SC3, 4-(3-(1-butyl-1H-1,2,3-triazol-4-yl)propoxy)-N-(4-((2,3-dihydro-1H-inden-2-yl)(propyl)amino)butyl)-3-methoxybenzamide] | 12 | 
5 | O=C1NCCc2ccc(OCCCN3CCN(c4cccc(Cl)c4Cl)CC3)cc21 [SC5, 7-(3-(4-(2,3-dichlorophenyl)piperazin-1-yl)propoxy)-3,4-dihydroisoquinolin-1(2H)-one] | 18 | 
6 | Clc1cccc(C2CCN(CCCCOc3ccc4scnc4c3)CC2)c1Cl [SC6, 5-(4-(4-(2,3-dichlorophenyl)piperidin-1-yl)butoxy)benzo[d]thiazole] |  | Ki: 42 nM
7 | Clc1cccc(C2CCN(CCCOc3ccc4scnc4c3)CC2)c1Cl [SC7, 5-(3-(4-(2,3-dichlorophenyl)piperidin-1-yl)propoxy)benzo[d]thiazole] | 75 | 
8 | Clc1cccc(N2CCN(CCCOc3ccc4scnc4c3)CC2)c1Cl [SC8, 5-(3-(4-(2,3-dichlorophenyl)piperazin-1-yl)propoxy)benzo[d]thiazole] | 30 | 
9 | C#CC1=CC[C@H](N(CCC)CCCCNC(=O)c2cc3ccccn3n2)CC1 [SC12, (R)-N-(4-((4-ethynylcyclohex-3-en-1-yl)(propyl)amino)butyl)pyrazolo[1,5-a]pyridine-2-carboxamide] |  | Ki: 5.5 nM
10 | C#CC1=CC[C@H](N(CCC)CCCCNC(=O)c2cnn3ccccc23)CC1 [SC13, (R)-N-(4-((4-ethynylcyclohex-3-en-1-yl)(propyl)amino)butyl)pyrazolo[1,5-a]pyridine-3-carboxamide] |  | Ki: 1.1 nM
11 | C#CC1=CC[C@H](N(CCC)CCCCNC(=O)c2ccc(OCCCc3cnn(CCCC)n3)c(OC)c2)CC1 [SC14, (R)-4-(3-(2-butyl-2H-1,2,3-triazol-4-yl)propoxy)-N-(4-((4-ethynylcyclohex-3-en-1-yl)(propyl)amino)butyl)-3-methoxybenzamide] | 4.2 | 
12 | C#CC1=CC[C@H](N(CCC)CCCCNC(=O)c2cc3ccccc3s2)CC1 [SC15, (R)-N-(4-((4-ethynylcyclohex-3-en-1-yl)(propyl)amino)butyl)benzo[b]thiophene-2-carboxamide] | 3.1 | 
13 | CCCN(CCC)[C@@H]1Cc2cccc3nc(O)n(c23)C1 [SC17, (R)-5-(dipropylamino)-5,6-dihydro-4H-imidazo[4,5,1-ij]quinolin-2-ol] | 11.4 | 
14 | Oc1ccc2c(c1)O[C@@H](CNCc1cccc(I)c1)CC2 [SC21, (R)-2-(((3-iodobenzyl)amino)methyl)chroman-7-ol] | 2.06 | 
15 | Oc1ccc2c(c1)O[C@@H](CNCc1ccc(OCCCCF)cc1)CC2 [SC22, (R)-2-(((4-(4-fluorobutoxy)benzyl)amino)methyl)chroman-7-ol] | 5.6 | 
16 | Oc1ccc2c(c1)O[C@@H](CNCCN1CCN(c3ccc(OCCF)cc3)CC1)CC2 [SC23, (R)-2-(((2-(4-(4-(2-fluoroethoxy)phenyl)piperazin-1-yl)ethyl)amino)methyl)chroman-7-ol] | 6.67 | 
17 | CC(C)CCN1CCN2c3cccc4[nH]cc(c34)CC2C1 (stereo not drawn) [SC25, 8-isopentyl-6,6a,7,8,9,10-hexahydro-4H-pyrazino[1,2-a]pyrrolo[4,3,2-de]quinoline] | 24 | 
18 | c1cc2c3c(c[nH]c3c1)CC1CN(CC3CCCCC3)CCN21 (stereo not drawn) [SC26, 8-(cyclohexylmethyl)-6,6a,7,8,9,10-hexahydro-4H-pyrazino[1,2-a]pyrrolo[4,3,2-de]quinoline] | 53.7 | 
19 | COc1ccccc1N1CCN(CCCCCNC(=O)c2sc3nc(OC)c(Cl)c(C)c3c2N)CC1 [SC27, 3-amino-5-chloro-6-methoxy-N-(5-(4-(2-methoxyphenyl)piperazin-1-yl)pentyl)-4-methylthieno[2,3-b]pyridine-2-carboxamide] | 3.5 | 
20 | CC(C)(C)OC(=O)NCCCCCN1CCN(c2cccc(Cl)c2Cl)CC1 [SC28, tert-butyl (5-(4-(2,3-dichlorophenyl)piperazin-1-yl)pentyl)carbamate] | 42.6 | 

Row | SMILES | Ki [1] [nM] | further results
21 | Cc1cc(C)c2c(N)c(C(=O)NCCCCCN3CCN(c4cccc(Cl)c4Cl)CC3)sc2n1 [SC29, 3-amino-N-(5-(4-(2,3-dichlorophenyl)piperazin-1-yl)pentyl)-4,6-dimethylthieno[2,3-b]pyridine-2-carboxamide] | 11.2 | 
22 | COc1ccccc1N1CCN(CCCNC(=O)OC(C)(C)C)CC1 [SC30, tert-butyl (3-(4-(2-methoxyphenyl)piperazin-1-yl)propyl)carbamate] | 15.8 | 
23 | COc1ccccc1N1CCN(CCCCCNC(=O)OC(C)(C)C)CC1 [SC31, tert-butyl (5-(4-(2-methoxyphenyl)piperazin-1-yl)pentyl)carbamate] | 12 | 
24 | C1=C(c2ccccc2)CCN(C[C@@H]2CCC=C(c3ccccc3)C2)C1 [SC32, (R)-4-phenyl-1-((2,3,4,5-tetrahydro-[1,1'-biphenyl]-3-yl)methyl)-1,2,3,6-tetrahydropyridine] |  | Ki: 8.4 nM
25 | Oc1ccc(C2=CCC[C@@H](CN3CC=C(c4ccccc4)CC3)C2)cc1 [SC33, (R)-3'-((4-phenyl-3,6-dihydropyridin-1(2H)-yl)methyl)-2',3',4',5'-tetrahydro-[1,1'-biphenyl]-4-ol] |  | Ki: 0.62 nM
26 | C#CC1=CC[C@@H](N(CCC)CCCCNC(=O)c2ccc(OCCCc3cn(CCCC)nn3)c(OC)c2)CO1 [SC34, (R)-4-(3-(1-butyl-1H-1,2,3-triazol-4-yl)propoxy)-N-(4-((6-ethynyl-3,4-dihydro-2H-pyran-3-yl)(propyl)amino)butyl)-3-methoxybenzamide] | 1.6 | 
27 | C#CC1=CC[C@H](N(CCC)CCCCNC(=O)c2ccc(OCCCc3cn(CCCC)nn3)c(OC)c2)CO1 [SC35, (S)-4-(3-(1-butyl-1H-1,2,3-triazol-4-yl)propoxy)-N-(4-((6-ethynyl-3,4-dihydro-2H-pyran-3-yl)(propyl)amino)butyl)-3-methoxybenzamide] | 4.9 | 
28 | CCCCn1cc(CCCOc2ccc(C(=O)NCCCCN(CCC)CCc3ccc(O)c4[nH]c(=O)ccc34)cc2OC)nn1 [SC36, 4-(3-(1-butyl-1H-1,2,3-triazol-4-yl)propoxy)-N-(4-((2-(8-hydroxy-2-oxo-1,2-dihydroquinolin-5-yl)ethyl)(propyl)amino)butyl)-3-methoxybenzamide] | 24 | 
29 | CCCCn1cc(CCCOc2ccc(C(=O)NCCCCN(CCC)[C@H]3CCc4c(O)cccc4C3)cc2OC)nn1 [SC37, (S)-4-(3-(1-butyl-1H-1,2,3-triazol-4-yl)propoxy)-N-(4-((5-hydroxy-1,2,3,4-tetrahydronaphthalen-2-yl)(propyl)amino)butyl)-3-methoxybenzamide] | 0.47 | 
30 | CCCN(CCC)[C@@H]1Cc2cccc3c2n(c(=O)n3CCC)C1 [SC38, (R)-5-(dipropylamino)-1-propyl-5,6-dihydro-4H-imidazo[4,5,1-ij]quinolin-2(1H)-one] | 2.59 | 
31 | CCCCn1c(=O)n2c3c(cccc31)C[C@@H](NC)C2 [SC39, (R)-1-butyl-5-(methylamino)-5,6-dihydro-4H-imidazo[4,5,1-ij]quinolin-2(1H)-one] | 12.8 | 
32 | CCCn1c(=O)n2c3c(cccc31)C[C@@H](NC)C2 [SC40, (R)-5-(methylamino)-1-propyl-5,6-dihydro-4H-imidazo[4,5,1-ij]quinolin-2(1H)-one] | 13.2 | 
33 | CCCN[C@@H]1Cc2cccc3c2n(c(=O)n3CCC)C1 [SC41, (R)-1-propyl-5-(propylamino)-5,6-dihydro-4H-imidazo[4,5,1-ij]quinolin-2(1H)-one] | 8.08 | 
34 | CCCN[C@@H]1Cc2cccc3c2n(c(=O)n3CCCCOCCCCc2ccccc2)C1 [SC42, (R)-1-(4-(4-phenylbutoxy)butyl)-5-(propylamino)-5,6-dihydro-4H-imidazo[4,5,1-ij]quinolin-2(1H)-one] | 37.2 | 
35 | CCCN(CCC)[C@@H]1Cc2cccc3c2n(c(=O)n3CCCCNC(=O)c2cc3ccccc3[nH]2)C1 [SC43, (R)-N-(4-(5-(dipropylamino)-2-oxo-5,6-dihydro-4H-imidazo[4,5,1-ij]quinolin-1(2H)-yl)butyl)-1H-indole-2-carboxamide] |  | Ki: 86.8 nM
36 | CN[C@@H]1Cc2cccc3c2n(c(=O)n3CCCCOc2ccc3c(c2)NC(=O)CC3)C1 [SC44, (R)-5-(methylamino)-1-(4-((2-oxo-1,2,3,4-tetrahydroquinolin-7-yl)oxy)butyl)-5,6-dihydro-4H-imidazo[4,5,1-ij]quinolin-2(1H)-one] | 338 | 
37 | CN[C@@H]1Cc2cccc3c2n(c(=O)n3CCOCCOCCOCCCCc2ccccc2)C1 [SC45, (R)-5-(methylamino)-1-(2-(2-(2-(4-phenylbutoxy)ethoxy)ethoxy)ethyl)-5,6-dihydro-4H-imidazo[4,5,1-ij]quinolin-2(1H)-one] | 34.7 | 
38 | O=c1ccc2c(N3CCCN(CCCCOc4ccn5nccc5c4)CC3)ccc(O)c2[nH]1 [SC46, 8-hydroxy-5-(4-(4-(pyrazolo[1,5-a]pyridin-5-yloxy)butyl)-1,4-diazepan-1-yl)quinolin-2(1H)-one] | 78 | 
39 | CCCN(CCCCNC(=O)c1cc2ccccc2[nH]1)[C@@H]1Cc2cccc3c2n(c(=O)n3CCC)C1 [SC47, (R)-N-(4-((2-oxo-1-propyl-1,2,5,6-tetrahydro-4H-imidazo[4,5,1-ij]quinolin-5-yl)(propyl)amino)butyl)-1H-indole-2-carboxamide] |  | Ki: 8.43 nM
